Where “and” joins values, the source holds several entries; their conditions need not be identical. Identical values can stand only once. Like-named read-outs stand apart in the source and are kept apart here.
Assays:
[1] = Phase I single-dose open-label pharmacokinetic study in participants with normal hepatic function and varying degrees of hepatic impairment; format: in vivo, human; settings: for Vd/F / AUC(0-inf) / AUC(0-t) / AUC(0-t) at 24 h / CL/F / Cmax / Tmax / half-life: human, po, 200 mg; for Vd/F / AUC(0-inf) / AUC(0-t) / AUC(0-t) at 24 h / CL/F / Cmax / Tmax / half-life / t1/2 / tlast: plasma; for Vd/F: read-out: Vz/F; for Tmax / tlast: median
Source text: The primary objective was to assess the pharmacokinetic (PK) of belumosudil following a single oral dose of belumosudil in participants with mild, moderate, or severe hepatic impairment compared to healthy participants with normal hepatic function.
The secondary objectives were: to evaluate the safety and tolerability of a single oral dose of belumosudil in participants with mild, moderate, or severe hepatic impairment, and in healthy participants with normal hepatic function; to assess the PK of the belumosudil metabolites following a single oral dose of belumosudil in participants with mild, moderate, or severe hepatic impairment compared to healthy participants with normal hepatic function.
Approximately 38 participants were to be enrolled into the following groups based on their hepatic function, as determined according to the Child-Pugh system. • Group 1 (n=approximately 16): matched healthy participants with normal hepatic function • Group 2 (n=8): participants with mild hepatic impairment (Child-Pugh Class A [score of 5 or 6]) • Group 3 (n=8): participants with moderate hepatic impairment (Child-Pugh Class B [score of 7 to 9]) • Group 4 (n=6): participants with severe hepatic impairment (Child-Pugh Class C [score of 10 to 14]).
Healthy participants with normal hepatic function (Group 1) were demographically matched by age (±10 years), sex, and body mass index (BMI; +20%) to participants with hepatic impairment (Groups 2, 3, and 4). Participants with normal hepatic function could be matched to multiple participants across the 3 hepatic impairment groups (mild, moderate, and severe), but could not be matched to more than 1 participant within the same impairment group.
Pharmacokinetic blood samples were obtained from predose until 48 hours postdose (Day 3).
Summary tables, mean (+standard deviation [SD]) figures, overlaying individual figures, and individual figures by hepatic function and time postdose were provided for plasma PK concentrations. Summary tables by hepatic function were provided for all PK parameters, with the exception of terminal phase regression-related diagnostic parameters (λz, λz upper, λ z lower, λz number of points, R2-adj, and % AUCextrap), which were listed only.
All other PK parameters were regarded as secondary and were not participant to inferential statistical analysis.

ROCK1 = settings: cited from earlier work
[2] = pregnant rats, cited from earlier work
UGT1A1 = settings: role: inhibitor; in vitro; cited from earlier work
[3] = single oral 200 mg belumosudil, fed, mild hepatic impairment, geometric mean (CV %)
[4] = single oral 200 mg belumosudil, fed, moderate hepatic impairment, geometric mean (CV %)
[5] = single oral 200 mg belumosudil, fed, normal hepatic function, geometric mean (CV %)
[6] = single oral 200 mg belumosudil, fed, severe hepatic impairment, geometric mean (CV %)
[7] = single oral 200 mg belumosudil, fed, mild hepatic impairment
[8] = single oral 200 mg belumosudil, fed, moderate hepatic impairment
[9] = single oral 200 mg belumosudil, fed, normal hepatic function
[10] = single oral 200 mg belumosudil, fed, severe hepatic impairment

## CC(C)NC(=O)COc1cccc(-c2nc(Nc3ccc4[nH]ncc4c3)c3ccccc3n2)c1 [belumosudil, 2-{3-[4-(1H-indazol-5-ylamino)-2-quinazolinyl]phenoxy}-N-(propan-2-yl) acetamide]
[1]; geometric means across participants with hepatic impairment (mild, moderate, severe)
  Vd/F: […]
[1]; [3]
  Vd/F: […]
  AUC(0-inf): […]
  AUC(0-t): […]
  AUC(0-t) at 24 h: […]
  CL/F: […]
  Cmax: […]
  t1/2: […]
[1]; [4]
  Vd/F: […]
  AUC(0-inf): […]
  AUC(0-t): […]
  AUC(0-t) at 24 h: […]
  CL/F: […]
  Cmax: […]
  half-life: […]
  t1/2: […]
[1]; [5]
  Vd/F: 193 L
  Cmax: 2190 ng/mL
[1]; [6]
  Vd/F: […]
  AUC(0-inf): […]
  AUC(0-t): […]
  AUC(0-t) at 24 h: […]
  CL/F: […]
  Cmax: […]
  half-life: […]
  t1/2: […]
[1]; [7]
  Tmax: […]
  tlast: […]
[1]; [8]
  Tmax: […]
  tlast: […]
[1]; [9]
  Tmax: […]
  tlast: […]
[1]; [10]
  Tmax: […]
  tlast: […]
[1]; one participant with moderate impairment
  concentration profile and exposure: […]
[1]; two participants with severe impairment
  concentration profiles and exposures: […]
ROCK1
  IC50: […]
[2]; oral, pilot study, absence of anus and tail, omphalocele, dome shaped head
  doses with fetal malformations: […]
[2]; organogenesis
  maternal exposure (AUC) causing embryo-fetal mortality and malformations vs patients: less than those in patients at the recommended dose
UGT1A1
  UGT1A1 inhibition: inhibitor

Source: US20260315475A1 (priority 2023, published 2026)
